US9914730B2, “Azaquinazoline inhibitors of Atypical protein Kinase C” (Ignyta, Inc., priority 2012, dated 2018)

These compounds were tested against T1, full-length human PKCι (Homo sapiens, UniProt P41743) (assay: PKCι IC50 IMAP assay, full-length PKCι at 150 μM ATP). Settings: read-out: IC50 in IMAP assay against full length PKCi at 150 μM ATP.
T1 construct: Recombinant, full-length human PKCι expressed in Sf21 insect cells is also commercially available; purchased; host or cells: Sf21 insect cells
T1 sequence (P41743 1-596): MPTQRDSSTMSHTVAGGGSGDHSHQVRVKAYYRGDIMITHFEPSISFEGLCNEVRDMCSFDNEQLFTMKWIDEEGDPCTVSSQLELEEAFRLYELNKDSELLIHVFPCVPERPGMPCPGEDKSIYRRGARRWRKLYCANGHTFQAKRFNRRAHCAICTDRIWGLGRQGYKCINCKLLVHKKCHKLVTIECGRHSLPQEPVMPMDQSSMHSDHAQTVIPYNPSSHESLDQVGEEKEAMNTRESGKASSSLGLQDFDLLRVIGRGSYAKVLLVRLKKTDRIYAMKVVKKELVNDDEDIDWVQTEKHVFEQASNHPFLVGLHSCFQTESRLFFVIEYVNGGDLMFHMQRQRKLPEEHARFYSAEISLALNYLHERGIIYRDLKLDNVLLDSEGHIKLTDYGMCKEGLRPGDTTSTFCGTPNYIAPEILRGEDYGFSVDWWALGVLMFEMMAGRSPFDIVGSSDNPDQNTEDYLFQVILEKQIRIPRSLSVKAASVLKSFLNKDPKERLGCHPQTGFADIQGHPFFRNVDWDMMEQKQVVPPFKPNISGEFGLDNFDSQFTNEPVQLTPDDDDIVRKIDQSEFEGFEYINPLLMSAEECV
Type: biochemical
Method in brief: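 IC50 from IMAP FP (ex 485/em 530 nm) after 60 min room-temperature reaction in pH 7.5 tris buffer with 9 mM MgCl2 and 0.9 mM DTT. Enzyme: full-length Sf21-expressed PKCι (~15 pM); ATP 150 μM, five times KM^APP; FAM-labelled peptide 100 nM; DMSO 4%.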
`CN(C)CCN(C)c1nc(-c2ccnc(Nc3c(F)cccc3F)c2)nc2cncc(C3CC3)c12` [Example 797, N-{5-Cyclopropyl-2-[2-(2,6-difluoro-phenylamino)-pyridin-4-yl]-pyrido[3,4-d]pyrimidin-4-yl}-N,N′,N′-trimethyl-ethane-1,2-diamine] showed an IC50 of 100 to 1000 nM. `C[C@H]1CN(c2nc(-c3ccnc(Nc4nc(F)ccc4F)c3)nc3cncc(C4CCC4)c23)CCN1` [Example 798, {4-[5-Cyclobutyl-4-((S)-3-methyl-piperazin-1-yl)-pyrido[3,4-d]pyrimidin-2-yl]-pyridin-2-yl}-(3,6-difluoro-pyridin-2-yl)-amine] gave an IC50 of less than 100 nM. Work on `Fc1ccc(F)c(Nc2cc(-c3nc(N4CCNCC4)c4c(C5CCC5)cncc4n3)ccn2)n1` [Example 799, [4-(5-Cyclobutyl-4-piperazin-1-yl-pyrido[3,4-d]pyrimidin-2-yl)-pyridin-2-yl]-(3,6-difluoro-pyridin-2-yl)-amine] yielded an IC50 of less than 100 nM. `C[C@H]1CN(c2nc(-c3ccnc(Nc4ncccc4F)c3)nc3cncc(C4CC4)c23)CCN1` [Example 800, {4-[5-Cyclopropyl-4-((S)-3-methyl-piperazin-1-yl)-pyrido[3,4-d]pyrimidin-2-yl]-pyridin-2-yl}-(3-fluoro-pyridin-2-yl)-amine] showed an IC50 of less than 100 nM. `Fc1ccc(Cl)nc1Nc1cc(-c2nc(N3CCNCC3)c3c(C4CC4)cncc3n2)ccn1` [Example 801, (6-Chloro-3-fluoro-pyridin-2-yl)-[4-(5-cyclopropyl-4-piperazin-1-yl-pyrido[3,4-d]pyrimidin-2-yl)-pyridin-2-yl]-amine] showed an IC50 of less than 100 nM. Compound `C[C@@H](Nc1cc(-c2nc(N3CCNCC3)c3c(C4CC4)cncc3n2)ccn1)c1nc(F)ccc1F` [Example 802, [4-(5-Cyclopropyl-4-piperazin-1-yl-pyrido[3,4-d]pyrimidin-2-yl)-pyridin-2-yl]-[(R)-1-(3,6-difluoro-pyridin-2-yl)-ethyl]-amine] has an IC50 of less than 100 nM. `CN(C)CCCCNc1nc(-c2ccnc(Nc3c(F)cccc3F)c2)nc2cncc(C3CC3)c12` [Example 803, N-{5-Cyclopropyl-2-[2-(2,6-difluoro-phenylamino)-pyridin-4-yl]-pyrido[3,4-d]pyrimidin-4-yl}-N′,N′-dimethyl-butane-1,4-diamine] showed an IC50 of 100 to 1000 nM. For `CN1CCN(c2cccc(Nc3cc(-c4nc(N5CCCCCC5)c5c(C6CC6)cncc5n4)ccn3)c2)CC1` [Example 804, [4-(4-Azepan-1-yl-5-cyclopropyl-pyrido[3,4-d]pyrimidin-2-yl)-pyridin-2-yl]-[3-(4-methyl-piperazin-1-yl)-phenyl]-amine], the IC50 was 100 to 1000 nM. With `OC1CCN(c2nc(-c3ccnc(Nc4cccc(F)n4)c3)nc3cncc(C4CC4)c23)CC1` [Example 805, 1-{5-Cyclopropyl-2-[2-(6-fluoro-pyridin-2-ylamino)-pyridin-4-yl]-pyrido[3,4-d]pyrimidin-4-yl}-piperidin-4-ol] the IC50 was 100 to 1000 nM. Compound `O[C@@H]1CCCN(c2nc(-c3ccnc(Nc4cccc(F)n4)c3)nc3cncc(C4CC4)c23)C1` [Example 806, (R)-1-{5-Cyclopropyl-2-[2-(6-fluoro-pyridin-2-ylamino)-pyridin-4-yl]-pyrido[3,4-d]pyrimidin-4-yl}-piperidin-3-ol] has an IC50 of 1000 to 10000 nM. For `Fc1cc(F)c(Nc2cc(-c3nc(N4CCNCC4)c4c(C5CCC5)cncc4n3)ccn2)nc1F` [Example 807, [4-(5-Cyclobutyl-4-piperazin-1-yl-pyrido[3,4-d]pyrimidin-2-yl)-pyridin-2-yl]-(3,5,6-trifluoro-pyridin-2-yl)-amine], the IC50 was less than 100 nM. Work on `C[C@H]1CN(c2nc(-c3ccnc(Nc4nc(F)c(F)cc4F)c3)nc3cncc(C4CCC4)c23)CCN1` [Example 808, {4-[5-Cyclobutyl-4-((S)-3-methyl-piperazin-1-yl)-pyrido[3,4-d]pyrimidin-2-yl]-pyridin-2-yl}-(3,5,6-trifluoro-pyridin-2-yl)-amine] yielded an IC50 of less than 100 nM. Compound `FC(F)(F)c1ccc(Nc2cc(-c3nc(N4CCNCC4)c4c(C5CCC5)cncc4n3)ccn2)nc1` [Example 809, [4-(5-Cyclobutyl-4-piperazin-1-yl-pyrido[3,4-d]pyrimidin-2-yl)-pyridin-2-yl]-(5-trifluoromethyl-pyridin-2-yl)-amine] has an IC50 of less than 100 nM. `C[C@@H](Nc1cc(-c2nc(N3CCNCC3)c3c(C4CC4)cncc3n2)ccn1)C1CC1` [Example 810, ((R)-1-Cyclopropyl-ethyl)-[4-(5-cyclopropyl-4-piperazin-1-yl-pyrido[3,4-d]pyrimidin-2-yl)-pyridin-2-yl]-amine] gave an IC50 of less than 100 nM. `C[C@@H](Nc1cc(-c2nc(N3CCNCC3)c3c(C4CC4)cncc3n2)ccn1)C1CCCCC1` [Example 811, ((R)-1-Cyclohexyl-ethyl)-[4-(5-cyclopropyl-4-piperazin-1-yl-pyrido[3,4-d]pyrimidin-2-yl)-pyridin-2-yl]-amine] showed an IC50 of less than 100 nM. `Fc1cc(C2CC2)cnc1Nc1cc(-c2nc(N3CCNCC3)c3c(C4CC4)cncc3n2)ccn1` [Example 812, (5-Cyclopropyl-3-fluoro-pyridin-2-yl)-[4-(5-cyclopropyl-4-piperazin-1-yl-pyrido[3,4-d]pyrimidin-2-yl)-pyridin-2-yl]-amine] gave an IC50 of less than 100 nM. `CC(C)(C)C(=O)N1CCC(Nc2cc(-c3nc(N4CCNCC4)c4c(C5CC5)cncc4n3)ccn2)CC1` [Example 813, 1-{4-[4-(5-Cyclopropyl-4-piperazin-1-yl-pyrido[3,4-d]pyrimidin-2-yl)-pyridin-2-ylamino]-piperidin-1-yl}-2,2-dimethyl-propan-1-one] gave an IC50 of less than 100 nM. `FC(F)(F)CN1CCC(Nc2cc(-c3nc(N4CCNCC4)c4c(C5CC5)cncc4n3)ccn2)CC1` [Example 814, [4-(5-Cyclopropyl-4-piperazin-1-yl-pyrido[3,4-d]pyrimidin-2-yl)-pyridin-2-yl]-[1-(2,2,2-trifluoro-ethyl)-piperidin-4-yl]-amine] showed an IC50 of less than 100 nM. `CC1(C)CN(c2nc(-c3ccnc(Nc4nc(F)c(F)cc4F)c3)nc3cncc(C4CC4)c23)CCN1` [Example 815, {4-[5-Cyclopropyl-4-(3,3-dimethyl-piperazin-1-yl)-pyrido[3,4-d]pyrimidin-2-yl]-pyridin-2-yl}-(3,5,6-trifluoro-pyridin-2-yl)-amine] showed an IC50 of less than 100 nM. `CS(=O)(=O)N1CCC(Nc2cc(-c3nc(N4CCNCC4)c4c(C5CC5)cncc4n3)ccn2)CC1` [Example 816, [4-(5-Cyclopropyl-4-piperazin-1-yl-pyrido[3,4-d]pyrimidin-2-yl)-pyridin-2-yl]-(1-methanesulfonyl-piperidin-4-yl)-amine] showed an IC50 of less than 100 nM. `Fc1ccccc1-n1cc(Nc2cc(-c3nc(N4CCNCC4)c4c(C5CC5)cncc4n3)ccn2)cn1` [Example 817, [4-(5-Cyclopropyl-4-piperazin-1-yl-pyrido[3,4-d]pyrimidin-2-yl)-pyridin-2-yl]-[1-(2-fluoro-phenyl)-1H-pyrazol-4-yl]-amine] gave an IC50 of less than 100 nM. For `Fc1cccc(F)c1-n1cc(Nc2cc(-c3nc(N4CCNCC4)c4c(C5CC5)cncc4n3)ccn2)cn1` [Example 818, [4-(5-Cyclopropyl-4-piperazin-1-yl-pyrido[3,4-d]pyrimidin-2-yl)-pyridin-2-yl]-[1-(2,6-difluoro-phenyl)-1H-pyrazol-4-yl]-amine], the IC50 was less than 100 nM. `Fc1cc(F)c(-n2cc(Nc3cc(-c4nc(N5CCNCC5)c5c(C6CC6)cncc5n4)ccn3)cn2)c(F)c1` [Example 820, [4-(5-Cyclopropyl-4-piperazin-1-yl-pyrido[3,4-d]pyrimidin-2-yl)-pyridin-2-yl]-[1-(2,4,6-trifluoro-phenyl)-1H-pyrazol-4-yl]-amine] gave an IC50 of less than 100 nM. Compound `CN1Cc2ccc(Nc3cc(-c4nc(N5CCC(O)CC5)c5c(C6CC6)cncc5n4)ccn3)cc2C1` [Example 821, 1-{5-Cyclopropyl-2-[2-(2-methyl-2,3-dihydro-1H-isoindol-5-ylamino)-pyridin-4-yl]-pyrido[3,4-d]pyrimidin-4-yl}-piperidin-4-ol] has an IC50 of less than 100 nM. In the case of `NC(=O)c1cc(F)c(Nc2cc(-c3nc(N4CCNCC4)c4c(C5CC5)cncc4n3)ccn2)c(F)c1` [Example 822, 4-[4-(5-Cyclopropyl-4-piperazin-1-yl-pyrido[3,4-d]pyrimidin-2-yl)-pyridin-2-ylamino]-3,5-difluoro-benzamide], the IC50 is reported as 1000 to 10000 nM. In the case of `c1cc(-c2nc(N3CCNCC3)c3c(C4CC4)cncc3n2)cc(N[C@H]2C[C@@H]3CC[C@H]2C3)n1` [Example 823, (1S,2S,4R)-Bicyclo[2.2.1]hept-2-yl-[4-(5-cyclopropyl-4-piperazin-1-yl-pyrido[3,4-d]pyrimidin-2-yl)-pyridin-2-yl]-amine], the IC50 is reported as less than 100 nM. With `c1cc(-c2nc(N3CCNCC3)c3c(C4CC4)cncc3n2)cc(N[C@@H]2C[C@H]3CC[C@@H]2C3)n1` [Example 824, (1R,2R,4S)-Bicyclo[2.2.1]hept-2-yl-[4-(5-cyclopropyl-4-piperazin-1-yl-pyrido[3,4-d]pyrimidin-2-yl)-pyridin-2-yl]-amine] the IC50 was less than 100 nM. `c1cc(C2CC2)n2nc(Nc3cc(-c4nc(N5CCNCC5)c5c(C6CC6)cncc5n4)ccn3)nc2c1` [Example 825, [4-(5-Cyclopropyl-4-piperazin-1-yl-pyrido[3,4-d]pyrimidin-2-yl)-pyridin-2-yl]-(5-cyclopropyl-[1,2,4]triazolo[1,5-a]pyridin-2-yl)-amine] was tested, and the IC50 was less than 100 nM.
